Reference: ChEMBL document CHEMBL1121609, “Peptide sweeteners. 4. Hydroxy and methoxy substitution of the aromatic ring in L-aspartyl-L-phenylalanine methyl ester. Structure-taste relationships” (J Med Chem, 1980)
Non-standard residues stand in square brackets, D forms with d. Residues, ends and D or L forms follow the SMILES beside them. ξ: configuration not given here. Tyr(3-OMe) = COc1cc(C[C@H](N)C(=O)O)ccc1O; Phe(3-OMe) = COc1cccc(C[C@H](N)C(=O)O)c1; Dopa = N[C@@H](Cc1ccc(O)c(O)c1)C(=O)O; ξPhe(3-OMe) = COc1cccc(CC(N)C(=O)O)c1; mTyr = N[C@@H](Cc1cccc(O)c1)C(=O)O; ξmTyr = NC(Cc1cccc(O)c1)C(=O)O; ξY = NC(Cc1ccc(O)cc1)C(=O)O; ξD = NC(CC(=O)O)C(=O)O

Experiment: Determined to achieve reproducible taste; + indicates ~ 1-5 times as sweet as sucrose

Question: With COC(=O)[C@H](Cc1ccc(OC)cc1)NC(=O)[C@@H](N)CC(=O)O (H-Asp-Tyr(Me)-OMe) as the compound, how does the Taste read?
Answer: Its Taste is ~ 1-5 times as sweet as sucrose.

Experiment: Determined to achieve reproducible taste; ++ indicates ~10-40 times as sweet as sucrose

Question: With COC(=O)C(Cc1ccccc1O)NC(=O)[C@@H](N)CC(=O)O (stereo partly specified) as the compound, how does the Taste read?
Answer: Its Taste is ~10-40 times as sweet as sucrose.

Question: Which Taste does the source give for COC(=O)[C@H](Cc1ccccc1O)NC(=O)[C@@H](N)CC(=O)O here?
Answer: Its Taste is ~10-40 times as sweet as sucrose.

Question: With COC(=O)[C@H](Cc1ccc(O)cc1)NC(=O)[C@@H](N)CC(=O)O (H-Asp-Tyr-OMe) as the compound, how does the Taste read?
Answer: Its Taste is ~10-40 times as sweet as sucrose.

Question: For COC(=O)[C@H](Cc1cccc(OC)c1)NC(=O)[C@@H](N)CC(=O)O (H-Asp-[Phe(3-OMe)]-OMe), which Taste is on record?
Answer: Its Taste is ~10-40 times as sweet as sucrose.

Question: For COC(=O)[C@H](Cc1cccc(O)c1)NC(=O)[C@@H](N)CC(=O)O (H-Asp-[mTyr]-OMe), which Taste is on record?
Answer: Its Taste is ~10-40 times as sweet as sucrose.

Question: With COC(=O)C(Cc1cccc(OC)c1)NC(=O)[C@@H](N)CC(=O)O (stereo partly specified) (H-Asp-[ξPhe(3-OMe)]-OMe) as the compound, how does the Taste read?
Answer: The Taste was ~10-40 times as sweet as sucrose.

Question: With COC(=O)C(Cc1ccc(O)cc1)NC(=O)[C@@H](N)CC(=O)O (stereo partly specified) (H-Asp-[ξY]-OMe) as the compound, how does the Taste read?
Answer: Its Taste is ~10-40 times as sweet as sucrose.

Question: For COC(=O)C(Cc1cccc(O)c1)NC(=O)[C@@H](N)CC(=O)O (stereo partly specified) (H-Asp-[ξmTyr]-OMe), which Taste is on record?
Answer: The Taste was ~10-40 times as sweet as sucrose.

Experiment: Determined to achieve reproducible taste; + indicates ~1-5 times as sweet as sucrose

Question: Which Taste does the source give for COC(=O)[C@H](Cc1ccc(O)c(O)c1)NC(=O)[C@@H](N)CC(=O)O (H-Asp-[Dopa]-OMe) here?
Answer: The Taste was ~1-5 times as sweet as sucrose.

Question: With COC(=O)[C@H](Cc1ccc(O)c(OC)c1)NC(=O)C(N)CC(=O)O (stereo partly specified) (H-[ξD]-[Tyr(3-OMe)]-OMe) as the compound, how does the Taste read?
Answer: The Taste was ~1-5 times as sweet as sucrose.
